Assay results taken from paper PMC6336887, “Smallest near-infrared fluorescent protein evolved from cyanobacteriochrome as versatile tag for spectral multiplexing” (Nature Communications, 2019).

Tests used:
[1] = target: T1, NpR3784 GAF domain (Nostoc punctiforme, UniProt B2J457); experiment: near-infrared fluorescence of E. coli co-expressing heme oxygenase; type: cell-based; conditions: weak binding; BV produced in the cells
T1 construct: gene Npun_R3784

[2] = target: T2, miRFP670nano (Nostoc punctiforme, UniProt B2J457, V48M/F66C/M67V/Y68F/P72E/S82A/A89S/N92K/Q96R/T98R/I113Y/G123N/H128Y/N140I/N158H/C160L/L177Q/Q180V, form not given); experiment: X-ray crystal structure, […] A; type: binding; conditions: covalent thioether, Cys86 to C3^1 of ring A; crystals at pH 4.0; BV from co-expressed heme oxygenase
T2 construct: gene Npun_R3784; single GAF domain, N-terminal alpha1-helix removed, 147 residues, 17 kDa, N-terminal polyhistidine tag, E. coli LMG194 co-expressing heme oxygenase, monomer

SMILES: C=CC1=C(C)C(=Cc2[nH]c(C=C3N=C(C=C4NC(=O)C(C)=C4C=C)C(C)=C3CCC(=O)O)c(CCC(=O)O)c2C)NC1=O [biliverdin]
- near-infrared fluorescence of E. coli co-expressing heme oxygenase [1]: the GAF domain of NpR3784 CBCR
- X-ray crystal structure, 1.95 A [2]: BV is covalently attached by a thioether bond between the conserved for CBCRs Cys86 residue
